{"source": "paper PMC5666424", "about": "“Marine-Derived 2-Aminoimidazolone Alkaloids. Leucettamine B-Related Polyandrocarpamines Inhibit Mammalian and Protozoan DYRK & CLK Kinases” (Marine Drugs, 2017)", "assay_in_all_cases": "KinomeScan", "format_in_all_cases": "binding", "settings_in_all_cases": "1 μM", "key": {"[1]": {"molecular_target": "T1, ABL1(F317I)-phosphorylated (Homo sapiens, UniProt P00519, F317I)", "T1 construct": "purchased DiscoverX (KINOMEscan)"}, "ACVR2A": {"molecular_target": "T2, ACVR2A (Homo sapiens, UniProt P27037)", "T2 construct": "purchased DiscoverX (KINOMEscan)"}, "BMPR2": {"molecular_target": "T3, BMPR2 (Homo sapiens, UniProt Q13873)", "T3 construct": "purchased DiscoverX (KINOMEscan)", "T3 sequence (Q13873 27-1038)": "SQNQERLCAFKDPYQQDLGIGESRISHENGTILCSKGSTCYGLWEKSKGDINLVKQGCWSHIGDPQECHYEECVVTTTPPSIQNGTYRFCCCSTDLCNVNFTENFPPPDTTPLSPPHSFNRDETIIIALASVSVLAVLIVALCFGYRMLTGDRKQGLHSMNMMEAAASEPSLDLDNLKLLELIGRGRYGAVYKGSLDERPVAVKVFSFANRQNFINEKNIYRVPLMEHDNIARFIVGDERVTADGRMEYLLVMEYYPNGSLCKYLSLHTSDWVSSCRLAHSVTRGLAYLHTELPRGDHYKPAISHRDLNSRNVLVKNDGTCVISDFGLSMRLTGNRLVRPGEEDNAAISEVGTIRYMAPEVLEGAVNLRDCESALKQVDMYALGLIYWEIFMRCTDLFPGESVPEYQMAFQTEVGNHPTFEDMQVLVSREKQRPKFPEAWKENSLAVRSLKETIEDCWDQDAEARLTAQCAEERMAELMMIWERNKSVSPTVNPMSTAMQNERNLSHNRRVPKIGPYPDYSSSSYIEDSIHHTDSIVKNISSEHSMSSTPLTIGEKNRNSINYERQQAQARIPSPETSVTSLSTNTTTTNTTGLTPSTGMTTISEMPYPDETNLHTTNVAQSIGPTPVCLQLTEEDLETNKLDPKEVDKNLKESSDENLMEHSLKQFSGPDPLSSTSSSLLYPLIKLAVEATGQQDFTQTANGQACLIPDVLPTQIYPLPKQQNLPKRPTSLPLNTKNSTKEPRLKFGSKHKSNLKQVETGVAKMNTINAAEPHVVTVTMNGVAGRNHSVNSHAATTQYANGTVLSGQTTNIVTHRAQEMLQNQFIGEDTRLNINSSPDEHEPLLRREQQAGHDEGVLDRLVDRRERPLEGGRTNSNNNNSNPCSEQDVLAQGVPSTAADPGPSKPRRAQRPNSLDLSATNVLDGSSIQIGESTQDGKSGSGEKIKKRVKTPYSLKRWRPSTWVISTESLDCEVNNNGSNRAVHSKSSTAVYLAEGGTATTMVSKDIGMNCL"}, "BMX": {"molecular_target": "T4, BMX (Homo sapiens, UniProt P51813)", "T4 construct": "purchased DiscoverX (KINOMEscan)"}, "CAMK4": {"molecular_target": "T5, CAMK4 (Homo sapiens, UniProt Q16566)", "T5 construct": "purchased DiscoverX (KINOMEscan)"}, "CAMKK2": {"molecular_target": "T6, CAMKK2 (Homo sapiens, UniProt Q96RR4)", "T6 construct": "purchased DiscoverX (KINOMEscan)"}, "CDK2": {"molecular_target": "T7, CDK2 (Homo sapiens, UniProt P24941)", "T7 construct": "purchased DiscoverX (KINOMEscan)"}, "CSNK1G3": {"molecular_target": "T8, CSNK1G3 (Homo sapiens, UniProt Q9Y6M4)", "T8 construct": "purchased DiscoverX (KINOMEscan)"}, "EGFR(G719C)": {"molecular_target": "T9, EGFR(G719C) (Homo sapiens, UniProt P00533, G719C)", "T9 construct": "purchased DiscoverX (KINOMEscan)", "T9 sequence (P00533 25-1210 G719C)": "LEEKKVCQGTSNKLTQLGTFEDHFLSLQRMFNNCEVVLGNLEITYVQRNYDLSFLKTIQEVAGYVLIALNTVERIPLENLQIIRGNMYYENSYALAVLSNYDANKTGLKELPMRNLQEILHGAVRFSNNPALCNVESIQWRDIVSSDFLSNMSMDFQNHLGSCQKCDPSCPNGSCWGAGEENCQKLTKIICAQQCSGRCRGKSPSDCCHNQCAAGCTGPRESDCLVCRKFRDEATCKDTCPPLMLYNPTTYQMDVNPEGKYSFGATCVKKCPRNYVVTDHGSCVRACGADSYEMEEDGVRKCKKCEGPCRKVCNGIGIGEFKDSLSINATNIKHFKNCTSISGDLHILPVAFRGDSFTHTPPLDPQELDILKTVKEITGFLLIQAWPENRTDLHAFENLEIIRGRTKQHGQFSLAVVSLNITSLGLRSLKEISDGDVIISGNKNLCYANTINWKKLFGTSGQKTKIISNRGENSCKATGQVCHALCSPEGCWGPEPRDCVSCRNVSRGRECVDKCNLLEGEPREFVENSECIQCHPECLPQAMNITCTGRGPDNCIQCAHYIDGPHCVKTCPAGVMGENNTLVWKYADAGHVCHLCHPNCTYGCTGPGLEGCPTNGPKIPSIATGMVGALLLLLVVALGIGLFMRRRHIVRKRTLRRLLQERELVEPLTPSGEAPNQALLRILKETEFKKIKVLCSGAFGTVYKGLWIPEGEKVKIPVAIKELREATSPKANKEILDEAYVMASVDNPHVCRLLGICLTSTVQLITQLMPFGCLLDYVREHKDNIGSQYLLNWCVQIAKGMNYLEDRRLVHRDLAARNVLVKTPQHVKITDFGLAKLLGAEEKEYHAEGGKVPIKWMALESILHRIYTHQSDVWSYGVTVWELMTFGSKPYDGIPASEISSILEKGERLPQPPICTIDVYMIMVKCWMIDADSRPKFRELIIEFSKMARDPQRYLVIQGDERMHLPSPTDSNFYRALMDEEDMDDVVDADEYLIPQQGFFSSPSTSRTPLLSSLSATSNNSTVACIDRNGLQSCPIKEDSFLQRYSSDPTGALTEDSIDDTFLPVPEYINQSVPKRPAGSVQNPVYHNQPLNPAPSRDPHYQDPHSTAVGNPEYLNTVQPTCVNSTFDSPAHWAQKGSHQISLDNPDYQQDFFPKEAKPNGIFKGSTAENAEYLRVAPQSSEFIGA"}, "[2]": {"molecular_target": "T10, EGFR(L747-S752del, P753S) (Homo sapiens, UniProt P00533, DEL747-752/P753S)", "T10 construct": "purchased DiscoverX (KINOMEscan)", "T10 sequence (P00533 with tags, fused parts or gaps DEL747-752/P753S limits assumed)": "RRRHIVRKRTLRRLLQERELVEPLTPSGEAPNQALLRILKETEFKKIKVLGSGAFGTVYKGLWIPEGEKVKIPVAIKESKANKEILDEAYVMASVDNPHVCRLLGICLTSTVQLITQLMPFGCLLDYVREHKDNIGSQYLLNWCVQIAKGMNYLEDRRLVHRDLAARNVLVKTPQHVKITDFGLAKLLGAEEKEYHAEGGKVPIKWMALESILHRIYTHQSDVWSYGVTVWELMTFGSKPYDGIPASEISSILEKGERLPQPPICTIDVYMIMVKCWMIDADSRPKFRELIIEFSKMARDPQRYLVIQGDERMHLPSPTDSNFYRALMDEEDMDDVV"}, "EGFR(L858R)": {"molecular_target": "T11, EGFR(L858R) (Homo sapiens, UniProt P00533, L858R)", "T11 construct": "purchased DiscoverX (KINOMEscan)", "T11 sequence (P00533 25-1210 L858R)": "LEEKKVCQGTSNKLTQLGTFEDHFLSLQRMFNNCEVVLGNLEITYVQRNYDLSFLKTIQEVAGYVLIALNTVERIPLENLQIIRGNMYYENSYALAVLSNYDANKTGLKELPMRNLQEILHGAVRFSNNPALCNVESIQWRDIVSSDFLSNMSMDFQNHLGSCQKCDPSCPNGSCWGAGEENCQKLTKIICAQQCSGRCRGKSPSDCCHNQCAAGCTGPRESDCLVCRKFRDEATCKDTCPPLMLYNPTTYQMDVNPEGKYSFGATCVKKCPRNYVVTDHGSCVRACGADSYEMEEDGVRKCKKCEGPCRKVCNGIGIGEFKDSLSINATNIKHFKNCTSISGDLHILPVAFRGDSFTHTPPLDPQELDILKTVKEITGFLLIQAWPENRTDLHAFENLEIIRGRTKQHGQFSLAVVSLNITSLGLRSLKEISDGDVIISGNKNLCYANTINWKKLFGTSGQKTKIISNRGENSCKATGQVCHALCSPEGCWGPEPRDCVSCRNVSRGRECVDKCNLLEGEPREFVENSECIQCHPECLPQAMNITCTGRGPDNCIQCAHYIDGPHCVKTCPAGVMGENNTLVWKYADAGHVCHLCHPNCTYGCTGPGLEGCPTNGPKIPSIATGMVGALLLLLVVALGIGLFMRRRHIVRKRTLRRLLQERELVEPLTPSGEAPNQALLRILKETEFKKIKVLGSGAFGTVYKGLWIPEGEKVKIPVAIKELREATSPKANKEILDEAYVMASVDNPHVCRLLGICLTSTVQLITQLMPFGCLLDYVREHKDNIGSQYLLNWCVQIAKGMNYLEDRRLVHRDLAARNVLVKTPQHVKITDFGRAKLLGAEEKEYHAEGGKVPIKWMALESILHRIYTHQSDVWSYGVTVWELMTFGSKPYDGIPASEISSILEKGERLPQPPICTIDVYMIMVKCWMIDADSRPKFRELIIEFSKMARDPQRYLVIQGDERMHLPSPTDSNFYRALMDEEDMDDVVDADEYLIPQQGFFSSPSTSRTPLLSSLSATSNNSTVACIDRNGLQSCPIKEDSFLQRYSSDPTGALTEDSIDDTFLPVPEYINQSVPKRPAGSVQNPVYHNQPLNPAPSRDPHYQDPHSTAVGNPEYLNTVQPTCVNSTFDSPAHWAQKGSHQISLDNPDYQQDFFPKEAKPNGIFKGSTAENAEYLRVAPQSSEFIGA"}, "EPHA5": {"molecular_target": "T12, EPHA5 (Homo sapiens, UniProt P54756)", "T12 construct": "purchased DiscoverX (KINOMEscan)"}, "ERK2": {"molecular_target": "T13, ERK2 (Homo sapiens, UniProt P28482)", "T13 construct": "purchased DiscoverX (KINOMEscan)"}, "ERK3": {"molecular_target": "T14, ERK3 (Homo sapiens, UniProt Q16659)", "T14 construct": "purchased DiscoverX (KINOMEscan)"}, "FLT3(R834Q)": {"molecular_target": "T15, FLT3(R834Q) (Homo sapiens, UniProt P36888, R834Q)", "T15 construct": "purchased DiscoverX (KINOMEscan)"}, "HPK1": {"molecular_target": "T16, HPK1 (Homo sapiens, UniProt Q92918)", "T16 construct": "purchased DiscoverX (KINOMEscan)"}, "IKK-alpha": {"molecular_target": "T17, IKK-alpha (Homo sapiens, UniProt O15111)", "T17 construct": "purchased DiscoverX (KINOMEscan)"}, "IRAK3": {"molecular_target": "T18, IRAK3 (Homo sapiens, UniProt Q9Y616)", "T18 construct": "purchased DiscoverX (KINOMEscan)"}, "IRAK4": {"molecular_target": "T19, IRAK4 (Homo sapiens, UniProt Q9NWZ3)", "T19 construct": "purchased DiscoverX (KINOMEscan)"}, "ITK": {"molecular_target": "T20, ITK (Homo sapiens, UniProt Q08881)", "T20 construct": "purchased DiscoverX (KINOMEscan)"}, "JNK2": {"molecular_target": "T21, JNK2 (Homo sapiens, UniProt P45984)", "T21 construct": "purchased DiscoverX (KINOMEscan)"}, "LRRK2": {"molecular_target": "T22, LRRK2 (Homo sapiens, UniProt Q5S007)", "T22 construct": "purchased DiscoverX (KINOMEscan)"}, "MAP3K1": {"molecular_target": "T23, MAP3K1 (Homo sapiens, UniProt Q13233)", "T23 construct": "purchased DiscoverX (KINOMEscan)"}, "MARK2": {"molecular_target": "T24, MARK2 (Homo sapiens, UniProt Q7KZI7)", "T24 construct": "purchased DiscoverX (KINOMEscan)"}, "MELK": {"molecular_target": "T25, MELK (Homo sapiens, UniProt Q14680)", "T25 construct": "purchased DiscoverX (KINOMEscan)"}, "MLK2": {"molecular_target": "T26, MLK2 (Homo sapiens, UniProt Q02779)", "T26 construct": "purchased DiscoverX (KINOMEscan)"}, "NEK2": {"molecular_target": "T27, NEK2 (Homo sapiens, UniProt P51955)", "T27 construct": "purchased DiscoverX (KINOMEscan)"}, "PIM2": {"molecular_target": "T28, PIM2 (Homo sapiens, UniProt Q9P1W9)", "T28 construct": "purchased DiscoveRx (KinomeScan, San Diego, CA, USA)"}, "SIK": {"molecular_target": "T29, SIK (Homo sapiens, UniProt P57059)", "T29 construct": "purchased DiscoverX (KINOMEscan)"}, "SLK": {"molecular_target": "T30, SLK (Homo sapiens, UniProt Q9H2G2)", "T30 construct": "purchased DiscoverX (KINOMEscan)"}, "SRPK3": {"molecular_target": "T31, SRPK3 (Homo sapiens, UniProt Q9UPE1)", "T31 construct": "purchased DiscoverX (KINOMEscan)"}, "TAOK3": {"molecular_target": "T32, TAOK3 (Homo sapiens, UniProt Q9H2K8)", "T32 construct": "purchased DiscoverX (KINOMEscan)"}, "TNK2": {"molecular_target": "T33, TNK2 (Homo sapiens, UniProt Q07912)", "T33 construct": "purchased DiscoverX (KINOMEscan)"}, "TNNI3K": {"molecular_target": "T34, TNNI3K (Homo sapiens, UniProt Q59H18)", "T34 construct": "purchased DiscoverX (KINOMEscan)"}, "TSSK1B": {"molecular_target": "T35, TSSK1B (Homo sapiens, UniProt Q9BXA7)", "T35 construct": "purchased DiscoverX (KINOMEscan)"}, "VEGFR2": {"molecular_target": "T36, VEGFR2 (Homo sapiens, UniProt P35968)", "T36 construct": "purchased DiscoverX (KINOMEscan)", "T36 sequence (P35968 20-1356)": "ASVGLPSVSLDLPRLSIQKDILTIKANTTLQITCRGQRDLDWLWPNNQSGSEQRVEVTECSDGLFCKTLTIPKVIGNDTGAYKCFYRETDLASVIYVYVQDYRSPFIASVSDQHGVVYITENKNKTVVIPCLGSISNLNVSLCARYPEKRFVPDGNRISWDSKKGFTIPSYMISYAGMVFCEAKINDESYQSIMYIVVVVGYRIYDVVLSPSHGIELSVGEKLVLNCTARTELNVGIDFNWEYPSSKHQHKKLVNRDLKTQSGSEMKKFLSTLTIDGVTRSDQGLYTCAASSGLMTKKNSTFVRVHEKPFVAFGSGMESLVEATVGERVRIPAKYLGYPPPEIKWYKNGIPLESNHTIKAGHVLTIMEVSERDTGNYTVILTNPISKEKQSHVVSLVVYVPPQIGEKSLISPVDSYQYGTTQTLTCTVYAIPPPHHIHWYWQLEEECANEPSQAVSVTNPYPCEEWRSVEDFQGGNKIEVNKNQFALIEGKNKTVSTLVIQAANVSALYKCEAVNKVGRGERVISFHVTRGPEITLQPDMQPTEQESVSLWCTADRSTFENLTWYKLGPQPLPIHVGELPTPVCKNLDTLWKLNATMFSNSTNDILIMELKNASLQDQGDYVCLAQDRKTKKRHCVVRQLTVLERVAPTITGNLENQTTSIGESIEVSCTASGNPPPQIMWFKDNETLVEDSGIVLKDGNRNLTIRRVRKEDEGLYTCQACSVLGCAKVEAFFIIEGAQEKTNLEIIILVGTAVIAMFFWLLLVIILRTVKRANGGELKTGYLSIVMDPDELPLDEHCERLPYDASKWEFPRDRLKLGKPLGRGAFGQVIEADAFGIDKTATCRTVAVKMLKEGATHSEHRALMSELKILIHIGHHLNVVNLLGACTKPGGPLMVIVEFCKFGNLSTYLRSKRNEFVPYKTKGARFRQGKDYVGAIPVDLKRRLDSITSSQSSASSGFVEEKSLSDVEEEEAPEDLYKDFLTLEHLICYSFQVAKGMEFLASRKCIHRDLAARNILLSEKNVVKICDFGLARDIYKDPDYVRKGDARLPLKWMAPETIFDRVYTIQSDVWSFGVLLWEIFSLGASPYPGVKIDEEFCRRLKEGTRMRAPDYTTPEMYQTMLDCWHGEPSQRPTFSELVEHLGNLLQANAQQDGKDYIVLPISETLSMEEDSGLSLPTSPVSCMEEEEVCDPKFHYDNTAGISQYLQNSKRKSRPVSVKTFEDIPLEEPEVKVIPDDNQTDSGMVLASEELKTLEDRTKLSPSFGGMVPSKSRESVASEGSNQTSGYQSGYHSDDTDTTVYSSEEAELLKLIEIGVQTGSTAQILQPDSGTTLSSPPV"}, "ZAP70": {"molecular_target": "T37, ZAP70 (Homo sapiens, UniProt P43403)", "T37 construct": "purchased DiscoverX (KINOMEscan)"}}, "data": [{"smiles": "COc1cc(/C=C2\\N=C(N)NC2=O)ccc1O", "note": "[Polyandrocarpamine A]", "values": [{"measurement": "Score", "setting": "[1]", "value": 86}, {"measurement": "Score", "setting": "ACVR2A", "value": 100}, {"measurement": "Score", "setting": "BMPR2", "value": 95}, {"measurement": "Score", "setting": "BMX", "value": 100}, {"measurement": "Score", "setting": "CAMK4", "value": 94}, {"measurement": "Score", "setting": "CAMKK2", "value": 94}, {"measurement": "Score", "setting": "CDK2", "value": 91}, {"measurement": "Score", "setting": "CSNK1G3", "value": 84}, {"measurement": "Score", "setting": "EGFR(G719C)", "value": 95}, {"measurement": "Score", "setting": "[2]", "value": 100}, {"measurement": "Score", "setting": "EGFR(L858R)", "value": 93}, {"measurement": "Score", "setting": "EPHA5", "value": 100}, {"measurement": "Score", "setting": "ERK2", "value": 100}, {"measurement": "Score", "setting": "ERK3", "value": 82}, {"measurement": "Score", "setting": "FLT3(R834Q)", "value": 100}, {"measurement": "Score", "setting": "HPK1", "value": 100}, {"measurement": "Score", "setting": "IKK-alpha", "value": 100}, {"measurement": "Score", "setting": "IRAK3", "value": 98}, {"measurement": "Score", "setting": "IRAK4", "value": 46}, {"measurement": "Score", "setting": "ITK", "value": 94}, {"measurement": "Score", "setting": "JNK2", "value": 100}, {"measurement": "Score", "setting": "LRRK2", "value": 100}, {"measurement": "Score", "setting": "MAP3K1", "value": 100}, {"measurement": "Score", "setting": "MARK2", "value": 100}, {"measurement": "Score", "setting": "MELK", "value": 100}, {"measurement": "Score", "setting": "MLK2", "value": 100}, {"measurement": "Score", "setting": "NEK2", "value": 100}, {"measurement": "Score", "setting": "PIM2", "value": 21}, {"measurement": "Score", "setting": "SIK", "value": 100}, {"measurement": "Score", "setting": "SLK", "value": 100}, {"measurement": "Score", "setting": "SRPK3", "value": 100}, {"measurement": "Score", "setting": "TAOK3", "value": 87}, {"measurement": "Score", "setting": "TNK2", "value": 100}, {"measurement": "Score", "setting": "TNNI3K", "value": 98}, {"measurement": "Score", "setting": "TSSK1B", "value": 100}, {"measurement": "Score", "setting": "VEGFR2", "value": 100}, {"measurement": "Score", "setting": "ZAP70", "value": 100}]}]}
